# Test results as given in ChEMBL document CHEMBL1123046, “11C-labeled 4-isopropylantipyrine: preparation and biological evaluation as a blood flow tracer in positron emission tomography (PET)” (1985).
# Columns and labels:
# Rattus norvegicus [1] = organism: Rattus norvegicus; experiment: Compound was evaluated for the measurement of Cerebral blood flow in medial geniculate body of Rats (hypercapnia); type: functional
# Rattus norvegicus [2] = organism: Rattus norvegicus; experiment: Compound was evaluated for the measurement of Cerebral blood flow in medial geniculate body of Rats (normocapnia); type: functional
# Rattus norvegicus [3] = organism: Rattus norvegicus; experiment: Compound was evaluated for the measurement of Cerebral blood flow in nucleus accumbens of Rats (hypercapnia); type: functional, Brain
# Rattus norvegicus [4] = organism: Rattus norvegicus; experiment: Compound was evaluated for the measurement of Cerebral blood flow in nucleus accumbens of Rats (normocapnia); type: functional, Brain
# Rattus norvegicus [5] = organism: Rattus norvegicus; experiment: Compound was evaluated for the measurement of Cerebral blood flow in nucleus ruber of Rats (hypercapnia); type: functional, Brain
# Rattus norvegicus [6] = organism: Rattus norvegicus; experiment: Compound was evaluated for the measurement of Cerebral blood flow in nucleus ruber of Rats (normocapnia); type: functional, Brain
# Rattus norvegicus [7] = organism: Rattus norvegicus; experiment: Compound was evaluated for the measurement of Cerebral blood flow in parietal cortex of Rats (hypercapnia); type: functional
# Rattus norvegicus [8] = organism: Rattus norvegicus; experiment: Compound was evaluated for the measurement of Cerebral blood flow in parietal cortex of Rats (normocapnia); type: functional
# Rattus norvegicus [9] = organism: Rattus norvegicus; experiment: Compound was evaluated for the measurement of Cerebral blood flow in piriform cortex of Rats (normocapnia); type: functional
# Rattus norvegicus [10] = organism: Rattus norvegicus; experiment: Compound was evaluated for the measurement of Cerebral blood flow in sensorimotor cortex of Rats (hypercapnia); type: functional, Brain
# Rattus norvegicus [11] = organism: Rattus norvegicus; experiment: Compound was evaluated for the measurement of Cerebral blood flow in sensorimotor cortex of Rats (normocapnia); type: functional, Brain
# Rattus norvegicus [12] = organism: Rattus norvegicus; experiment: Compound was evaluated for the measurement of Cerebral blood flow in septal nucleus of Rats (hypercapnia); type: functional, Brain
# Rattus norvegicus [13] = organism: Rattus norvegicus; experiment: Compound was evaluated for the measurement of Cerebral blood flow in septal nucleus of Rats (normocapnia); type: functional, Brain
# Rattus norvegicus [14] = organism: Rattus norvegicus; experiment: Compound was evaluated for the measurement of Cerebral blood flow in substantia nigra of Rats (hypercapnia); type: functional
# Rattus norvegicus [15] = organism: Rattus norvegicus; experiment: Compound was evaluated for the measurement of Cerebral blood flow in substantia nigra of Rats (normocapnia); type: functional
# Rattus norvegicus [16] = organism: Rattus norvegicus; experiment: Compound was evaluated for the measurement of Cerebral blood flow in superior coliculus of Rats (hypercapnia); type: functional, Brain
# Rattus norvegicus [17] = organism: Rattus norvegicus; experiment: Compound was evaluated for the measurement of Cerebral blood flow in amygdala of Rats (hypercapnia); type: functional
# Rattus norvegicus [18] = organism: Rattus norvegicus; experiment: Compound was evaluated for the measurement of Cerebral blood flow in amygdala of Rats (normocapnia); type: functional
# Rattus norvegicus [19] = organism: Rattus norvegicus; experiment: Compound was evaluated for the measurement of Cerebral blood flow in auditory cortex of Rats (hypercapnia); type: functional
# Rattus norvegicus [20] = organism: Rattus norvegicus; experiment: Compound was evaluated for the measurement of Cerebral blood flow in caudoputamen of Rats ((hypercapnia); type: functional, Brain
# Rattus norvegicus [21] = organism: Rattus norvegicus; experiment: Compound was evaluated for the measurement of Cerebral blood flow in superior coliculus of Rats (normocapnia); type: functional, Brain
# Rattus norvegicus [22] = organism: Rattus norvegicus; experiment: Compound was evaluated for the measurement of Cerebral blood flow in thalamus of Rats (hypercapnia); type: functional
# Rattus norvegicus [23] = organism: Rattus norvegicus; experiment: Compound was evaluated for the measurement of Cerebral blood flow in thalamus of Rats (normocapnia); type: functional
# Rattus norvegicus [24] = organism: Rattus norvegicus; experiment: Compound was evaluated for the measurement of Cerebral blood flow in visual cortex of Rats (hypercapnia); type: functional
# Rattus norvegicus [25] = organism: Rattus norvegicus; experiment: Compound was evaluated for the measurement of Cerebral blood flow in visual cortex of Rats (normocapnia); type: functional
# Rattus norvegicus [26] = organism: Rattus norvegicus; experiment: Compound was evaluated for the measurement of Cerebral blood flow in caudoputamen of Rats (normocapnia); type: functional, Brain
# Rattus norvegicus [27] = organism: Rattus norvegicus; experiment: Compound was evaluated for the measurement of Cerebral blood flow in cerebellum of Rats (hypercapnia); type: functional
# Rattus norvegicus [28] = organism: Rattus norvegicus; experiment: Compound was evaluated for the measurement of Cerebral blood flow in cerebellum of Rats (normocapnia); type: functional
# Rattus norvegicus [29] = organism: Rattus norvegicus; experiment: Compound was evaluated for the measurement of Cerebral blood flow in cingulate cortex of Rats (hypercapnia); type: functional, Brain
# Rattus norvegicus [30] = organism: Rattus norvegicus; experiment: Compound was evaluated for the measurement of Cerebral blood flow in cingulate cortex of Rats (normocapnia); type: functional, Brain
# Rattus norvegicus [31] = organism: Rattus norvegicus; experiment: Compound was evaluated for the measurement of Cerebral blood flow in frontal cortex of Rats (hypercapnia); type: functional
# Rattus norvegicus [32] = organism: Rattus norvegicus; experiment: Compound was evaluated for the measurement of Cerebral blood flow in frontal cortex of Rats (normocapnia); type: functional
# Rattus norvegicus [33] = organism: Rattus norvegicus; experiment: Compound was evaluated for the measurement of Cerebral blood flow in globus pallidus of Rats (hypercapnia); type: functional
# Rattus norvegicus [34] = organism: Rattus norvegicus; experiment: Compound was evaluated for the measurement of Cerebral blood flow in globus pallidus of Rats (normocapnia); type: functional
# Rattus norvegicus [35] = organism: Rattus norvegicus; experiment: Compound was evaluated for the measurement of Cerebral blood flow in habenula of Rats (hypercapnia); type: functional
# Rattus norvegicus [36] = organism: Rattus norvegicus; experiment: Compound was evaluated for the measurement of Cerebral blood flow in habenula of Rats (normocapnia); type: functional
# Rattus norvegicus [37] = organism: Rattus norvegicus; experiment: Compound was evaluated for the measurement of Cerebral blood flow in hippocampus cortex of Rats (hypercapnia); type: functional
# Rattus norvegicus [38] = organism: Rattus norvegicus; experiment: Compound was evaluated for the measurement of Cerebral blood flow in hippocampus cortex of Rats (normocapnia); type: functional
# Rattus norvegicus [39] = organism: Rattus norvegicus; experiment: Compound was evaluated for the measurement of Cerebral blood flow in hypothalamus of Rats (hypercapnia); type: functional
# Rattus norvegicus [40] = organism: Rattus norvegicus; experiment: Compound was evaluated for the measurement of Cerebral blood flow in hypothalamus of Rats (normocapnia); type: functional
# Rattus norvegicus [41] = organism: Rattus norvegicus; experiment: Compound was evaluated for the measurement of Cerebral blood flow in inferior coliculus of Rats (hypercapnia); type: functional, Brain
# Rattus norvegicus [42] = organism: Rattus norvegicus; experiment: Compound was evaluated for the measurement of Cerebral blood flow in inferior coliculus of Rats (normocapnia); type: functional, Brain
# Rattus norvegicus [43] = organism: Rattus norvegicus; experiment: Compound was evaluated for the measurement of Cerebral blood flow in lateral geniculate body of Rats (hypercapnia); type: functional
# Rattus norvegicus [44] = organism: Rattus norvegicus; experiment: Compound was evaluated for the measurement of Cerebral blood flow in lateral geniculate body of Rats (normocapnia); type: functional
# Rattus norvegicus [45] = organism: Rattus norvegicus; experiment: Compound was evaluated for the measurement of Cerebral blood flow in auditory cortex of Rats (normocapnia); type: functional
# Rattus norvegicus [46] = organism: Rattus norvegicus; experiment: Compound was evaluated for the measurement of Cerebral blood flow in piriform cortex of Rats (hypercapnia); type: functional
smiles,measurement,setting,value
Cc1c(I)c(=O)n(-c2ccccc2)n1C [IODOANTIPYRINE],Blood flow,Rattus norvegicus [1],5.18 100ml g-1 min-1
same,Blood flow,Rattus norvegicus [2],1.82 100ml g-1 min-1
same,Blood flow,Rattus norvegicus [3],4.18 100ml g-1 min-1
same,Blood flow,Rattus norvegicus [4],1.5 100ml g-1 min-1
same,Blood flow,Rattus norvegicus [5],3.49 100ml g-1 min-1
same,Blood flow,Rattus norvegicus [6],1.45 100ml g-1 min-1
same,Blood flow,Rattus norvegicus [7],5.5 100ml g-1 min-1
same,Blood flow,Rattus norvegicus [8],1.89 100ml g-1 min-1
same,Blood flow,Rattus norvegicus [9],1.12 100ml g-1 min-1
same,Blood flow,Rattus norvegicus [10],5.75 100ml g-1 min-1
same,Blood flow,Rattus norvegicus [11],1.98 100ml g-1 min-1
same,Blood flow,Rattus norvegicus [12],3.21 100ml g-1 min-1
same,Blood flow,Rattus norvegicus [13],0.85 100ml g-1 min-1
same,Blood flow,Rattus norvegicus [14],3.21 100ml g-1 min-1
same,Blood flow,Rattus norvegicus [15],1.01 100ml g-1 min-1
same,Blood flow,Rattus norvegicus [16],3.78 100ml g-1 min-1
same,Blood flow,Rattus norvegicus [17],3.09 100ml g-1 min-1
same,Blood flow,Rattus norvegicus [18],1.06 100ml g-1 min-1
same,Blood flow,Rattus norvegicus [19],5.79 100ml g-1 min-1
same,Blood flow,Rattus norvegicus [20],3.77 100ml g-1 min-1
same,Blood flow,Rattus norvegicus [21],1.48 100ml g-1 min-1
same,Blood flow,Rattus norvegicus [22],4.77 100ml g-1 min-1
same,Blood flow,Rattus norvegicus [23],1.63 100ml g-1 min-1
same,Blood flow,Rattus norvegicus [24],4.08 100ml g-1 min-1
same,Blood flow,Rattus norvegicus [25],1.52 100ml g-1 min-1
same,Blood flow,Rattus norvegicus [26],1.41 100ml g-1 min-1
same,Blood flow,Rattus norvegicus [27],2.7 100ml g-1 min-1
same,Blood flow,Rattus norvegicus [28],0.82 100ml g-1 min-1
same,Blood flow,Rattus norvegicus [29],3.9 100ml g-1 min-1
same,Blood flow,Rattus norvegicus [30],1.33 100ml g-1 min-1
same,Blood flow,Rattus norvegicus [31],4.67 100ml g-1 min-1
same,Blood flow,Rattus norvegicus [32],2.03 100ml g-1 min-1
same,Blood flow,Rattus norvegicus [33],2.61 100ml g-1 min-1
same,Blood flow,Rattus norvegicus [34],0.66 100ml g-1 min-1
same,Blood flow,Rattus norvegicus [35],5.23 100ml g-1 min-1
same,Blood flow,Rattus norvegicus [36],1.64 100ml g-1 min-1
same,Blood flow,Rattus norvegicus [37],2.84 100ml g-1 min-1
same,Blood flow,Rattus norvegicus [38],0.87 100ml g-1 min-1
same,Blood flow,Rattus norvegicus [39],3.14 100ml g-1 min-1
same,Blood flow,Rattus norvegicus [40],1.05 100ml g-1 min-1
same,Blood flow,Rattus norvegicus [41],4.76 100ml g-1 min-1
same,Blood flow,Rattus norvegicus [42],1.99 100ml g-1 min-1
same,Blood flow,Rattus norvegicus [43],3.97 100ml g-1 min-1
same,Blood flow,Rattus norvegicus [44],1.4 100ml g-1 min-1
same,Blood flow,Rattus norvegicus [45],3.12 100ml g-1 min-1
same,Blood flow,Rattus norvegicus [46],3.11 100ml g-1 min-1
Cc1c(C(C)C)c(=O)n(-c2ccccc2)n1C [PROPYPHENAZONE],Blood flow,Rattus norvegicus [1],6.94 100ml g-1 min-1
same,Blood flow,Rattus norvegicus [2],2.18 100ml g-1 min-1
same,Blood flow,Rattus norvegicus [3],5.49 100ml g-1 min-1
same,Blood flow,Rattus norvegicus [4],1.45 100ml g-1 min-1
same,Blood flow,Rattus norvegicus [5],4.91 100ml g-1 min-1
same,Blood flow,Rattus norvegicus [6],1.36 100ml g-1 min-1
same,Blood flow,Rattus norvegicus [7],6.95 100ml g-1 min-1
same,Blood flow,Rattus norvegicus [8],1.89 100ml g-1 min-1
same,Blood flow,Rattus norvegicus [9],1.05 100ml g-1 min-1
same,Blood flow,Rattus norvegicus [10],7.24 100ml g-1 min-1
same,Blood flow,Rattus norvegicus [11],1.91 100ml g-1 min-1
same,Blood flow,Rattus norvegicus [12],3.34 100ml g-1 min-1
same,Blood flow,Rattus norvegicus [13],0.91 100ml g-1 min-1
same,Blood flow,Rattus norvegicus [14],3.9 100ml g-1 min-1
same,Blood flow,Rattus norvegicus [15],1 100ml g-1 min-1
same,Blood flow,Rattus norvegicus [16],4.66 100ml g-1 min-1
same,Blood flow,Rattus norvegicus [17],3.65 100ml g-1 min-1
same,Blood flow,Rattus norvegicus [18],0.95 100ml g-1 min-1
same,Blood flow,Rattus norvegicus [19],5.66 100ml g-1 min-1
same,Blood flow,Rattus norvegicus [20],4.18 100ml g-1 min-1
same,Blood flow,Rattus norvegicus [21],1.49 100ml g-1 min-1
same,Blood flow,Rattus norvegicus [22],6.84 100ml g-1 min-1
same,Blood flow,Rattus norvegicus [23],1.73 100ml g-1 min-1
same,Blood flow,Rattus norvegicus [24],4.97 100ml g-1 min-1
same,Blood flow,Rattus norvegicus [25],1.3 100ml g-1 min-1
same,Blood flow,Rattus norvegicus [26],1.35 100ml g-1 min-1
same,Blood flow,Rattus norvegicus [27],1.98 100ml g-1 min-1
same,Blood flow,Rattus norvegicus [28],0.83 100ml g-1 min-1
same,Blood flow,Rattus norvegicus [29],3.45 100ml g-1 min-1
same,Blood flow,Rattus norvegicus [30],1.34 100ml g-1 min-1
same,Blood flow,Rattus norvegicus [31],5.34 100ml g-1 min-1
same,Blood flow,Rattus norvegicus [32],2.26 100ml g-1 min-1
same,Blood flow,Rattus norvegicus [33],2.85 100ml g-1 min-1
same,Blood flow,Rattus norvegicus [34],0.73 100ml g-1 min-1
same,Blood flow,Rattus norvegicus [35],5.29 100ml g-1 min-1
same,Blood flow,Rattus norvegicus [36],1.43 100ml g-1 min-1
same,Blood flow,Rattus norvegicus [37],2.77 100ml g-1 min-1
same,Blood flow,Rattus norvegicus [38],0.87 100ml g-1 min-1
same,Blood flow,Rattus norvegicus [39],3.63 100ml g-1 min-1
same,Blood flow,Rattus norvegicus [40],0.97 100ml g-1 min-1
same,Blood flow,Rattus norvegicus [41],5.3 100ml g-1 min-1
same,Blood flow,Rattus norvegicus [42],1.99 100ml g-1 min-1
same,Blood flow,Rattus norvegicus [43],5.46 100ml g-1 min-1
same,Blood flow,Rattus norvegicus [44],1.45 100ml g-1 min-1
same,Blood flow,Rattus norvegicus [45],2.36 100ml g-1 min-1
same,Blood flow,Rattus norvegicus [46],3.56 100ml g-1 min-1
